Herbicidal activity data for 23 compounds are collected here from patent US9549558B2, “Herbicidal azines” (BASF SE, priority 2012, dated 2017).

Holding throughout (format): in vivo
In assay [1] the test system is ABUTH (Abutilon theophrasti). Put plainly: greenhouse post-emergence herbicidal test. An excerpt: (§1) The culture containers used were plastic flowerpots containing loamy sand with approximately 3.0% of humus as the substrate. The seeds of the test plants were sown separately for each species.
For the post-emergence treatment, the test plants were first grown to a height of 3 to 15 cm, depending on the plant habit, and only then treated with the active ingredients which had been suspended or emulsified in water. For this purpose, the test plants were either sown directly and grown in the same containers, or they were first grown separately as seedlings and transplanted into the test containers a few days prior to treatment.
(§2) Depending on the species, the plants were kept at 10-25° C. or 20-35° C., respectively.
(§3) The test period extended over 2 to 4 weeks. During this time, the plants were tended, and their response to the individual treatments was evaluated.
(§4) Evaluation was carried out using a scale from 0 to 100. 100 means no emergence of the plants, or complete destruction of at least the aerial moieties, and 0 means no damage, or normal course of growth. A moderate herbicidal activity is given at values of at least 60, a good herbicidal activity is given at values of at least 70, and a very good herbicidal activity is given at values of at least 85.
(§5) The plants used in the greenhouse experiments were of the following species: […]

For assay [2], the system named is SETFA (Setaria faberi). Put plainly: greenhouse pre-emergence herbicidal test.
Source text: as §1
(§6) For the pre-emergence treatment, the active ingredients, which had been suspended or emulsified in water, were applied directly after sowing by means of finely distributing nozzles. The containers were irrigated gently to promote germination and growth and subsequently covered with transparent plastic hoods until the plants had rooted. This cover caused uniform germination of the test plants, unless this had been impaired by the active ingredients.
as §2, §3, §4, §5

The test system of assay [3] is ABUTH (Abutilon theophrasti). Put plainly: greenhouse pre-emergence herbicidal test. An excerpt:
(§7) The seeds of the test plants were sown separately for each species. For the pre-emergence treatment, the active ingredients, which had been suspended or emulsified in water, were applied directly after sowing by means of finely distributing nozzles. The containers were irrigated gently to promote germination and growth and subsequently covered with transparent plastic hoods until the plants had rooted. This cover caused uniform germination of the test plants, unless this had been impaired by the active ingredients. Depending on the species, the plants were kept at 10-25° C. or 20-35° C., respectively. The test period extended over 2 to 4 weeks. During this time, the plants were tended, and their response to the individual treatments was evaluated. […] A moderate herbicidal activity is given at values of at least 60, a good herbicidal activity is given at values of at least 70, and a very good herbicidal activity is given at values of at least 85. The plants used in the greenhouse experiments were of the following species: [table]

Assay [4] has as its system AMARE (Amaranthus retroflexus). Put plainly: greenhouse pre-emergence herbicidal test.
Source text: as §7

Assay [5] concerns STEME (Stellaria media). Put plainly: greenhouse pre-emergence herbicidal test.
Source text: as §1, §6, §2, §3, §4, §5

Assay [6] deals with ECHCG (Echinocloa crus-galli). Put plainly: greenhouse pre-emergence herbicidal test.
Source text: as §1, §6, §2, §3, §4, §5

Assay [7] deals with CAPBP (Capsella bursa-pastoris). Put plainly: greenhouse pre-emergence herbicidal test. Conditions: CAPBP.
Source text: as §1, §6, §2, §3, §4, §5

SMILES strings stand for the structures.

On to `COc1ccc(F)c(F)c1Nc1nc(N)nc(C(F)(F)F)n1` [Example 158], for which the herbicidal activity entry in assay [1] (1000 g/ha) was “very good (a very good herbicidal activity is given at values of at least 85)”.
Regarding `COC1CCC(c2nc(N)nc(Nc3c(F)c(F)c(F)c(F)c3F)n2)CC1` (centres unmarked) [Example 167], the herbicidal activity result in assay [2] (500 g/ha) is listed as “very good (a very good herbicidal activity is given at values of at least 85)”; in assay [3] (500 g/ha) it was “good (a good herbicidal activity is given at values of at least 70)”; in assay [4] (500 g/ha), “very good (a very good herbicidal activity is given at values of at least 85)”.
Turning to `Nc1nc(Nc2c(F)c(F)cc(F)c2F)nc(C(F)F)n1` [Example 150], the herbicidal activity entry in assay [2] (500 g/ha), in assay [3] (500 g/ha) and in assay [4] (500 g/ha) was “very good (a very good herbicidal activity is given at values of at least 85)” in each case.
As to `CC=C(C)c1nc(N)nc(Nc2c(F)c(F)c(Br)c(F)c2F)n1` [Example 194], the herbicidal activity entry in assay [2] (500 g/ha) is recorded as “good (a good herbicidal activity is given at values of at least 70)”.
For `N#CC1(c2nc(N)nc(Nc3c(F)c(F)cc(F)c3F)n2)CC1` [Example 216], the herbicidal activity result is recorded as “good (a good herbicidal activity is given at values of at least 70)” in assay [2] (250 g/ha), “good (a good herbicidal activity is given at values of at least 70)” in assay [3] (250 g/ha) and “very good (a very good herbicidal activity is given at values of at least 85)” in assay [4] (250 g/ha).
Turning to `C=C(C)c1nc(N)nc(Nc2c(F)c(F)c(F)c(F)c2F)n1` [Example 53], the herbicidal activity result in assay [2] (0.125 kg/ha) is “good (a good herbicidal activity is given at values of at least 70)”; in assay [4] (0.125 kg/ha), “very good (a very good herbicidal activity is given at values of at least 85)”.
Consider `CC(C)(C#N)c1nc(N)nc(Nc2c(F)c(F)c(F)c(F)c2F)n1` [Example 64], for which the herbicidal activity result in assay [5] (125 g/ha), in assay [3] (125 g/ha) and in assay [4] (125 g/ha) was “very good (a very good herbicidal activity is given at values of at least 85)” throughout.
With `Nc1nc(C2CCCC2)nc(N(C(=O)C2CCCC2)c2c(F)c(F)cc(F)c2F)n1` [Example 304], the herbicidal activity entry in assay [6] (1000 g/ha), in assay [2] (1000 g/ha) and in assay [4] (1000 g/ha) was “very good (a very good herbicidal activity is given at values of at least 85)” in each case.
Take `Nc1nc(Nc2c(F)c(F)c(F)c(F)c2F)nc(C(F)(F)C(F)(F)F)n1` [Example 68]: the herbicidal activity entry in assay [5] (125 g/ha), in assay [7] (125 g/ha) and in assay [4] (125 g/ha) was “very good (a very good herbicidal activity is given at values of at least 85)” throughout.
Take `Nc1nc(Nc2c(F)cc(F)cc2F)nc(C2CCC2)n1` [Example 142]: the values for the herbicidal activity entry in assay [2] (500 g/ha), in assay [3] (500 g/ha) and in assay [4] (500 g/ha) were “good (a good herbicidal activity is given at values of at least 70)”, “good (a good herbicidal activity is given at values of at least 70)” and “very good (a very good herbicidal activity is given at values of at least 85)”, respectively.
For the compound `CN(c1nc(N)nc(C(C)(C)F)n1)c1c(F)c(F)c(F)c(F)c1F` [Example 307], the herbicidal activity entry in assay [2] (125 g/ha) and in assay [4] (125 g/ha) was “very good (a very good herbicidal activity is given at values of at least 85)” throughout.
As for `CCC(C)(Cl)c1nc(N)nc(Nc2c(F)c(F)cc(F)c2F)n1` (centres unmarked) [Example 205], the herbicidal activity result in assay [6] (125 g/ha), in assay [2] (125 g/ha) and in assay [4] (125 g/ha) was “very good (a very good herbicidal activity is given at values of at least 85)” throughout.
`CC(Cl)(Cl)c1nc(N)nc(Nc2c(F)c(F)c(F)c(F)c2F)n1` [Example 147]: the herbicidal activity entry in assay [6] (250 g/ha), in assay [2] (250 g/ha) and in assay [4] (250 g/ha) was “very good (a very good herbicidal activity is given at values of at least 85)” in each case.
In the case of `Nc1nc(Nc2c(F)ccc(F)c2F)nc(C2CCCC2)n1` [Example 212], the herbicidal activity result in assay [6] (500 g/ha), in assay [2] (500 g/ha) and in assay [4] (500 g/ha) was “very good (a very good herbicidal activity is given at values of at least 85)” throughout.
In the case of `CC(C)(C)C(=O)N(c1nc(N)nc(C(C)(C)C)n1)c1c(F)c(F)cc(F)c1F` [Example 286], the herbicidal activity entry in assay [2] (125 g/ha), in assay [3] (125 g/ha) and in assay [4] (125 g/ha) was “very good (a very good herbicidal activity is given at values of at least 85)” in each case.
In the case of `CCC(CC)c1nc(N)nc(Nc2c(F)c(F)c(F)c(F)c2F)n1` [Example 83], the herbicidal activity entry in assay [5] (250 g/ha), in assay [7] (250 g/ha) and in assay [6] (250 g/ha) was “very good (a very good herbicidal activity is given at values of at least 85)” in each case.
Consider `CCCCC(C#N)c1nc(N)nc(Nc2c(F)ccc(F)c2F)n1` (centres unmarked) [Example 197], for which the herbicidal activity result in assay [2] (1000 g/ha) was “good (a good herbicidal activity is given at values of at least 70)”.
Take `CC(C)(F)c1nc(N)nc(Nc2c(F)cc([N+](=O)[O-])cc2F)n1` [Example 220]: the herbicidal activity result in assay [2] (500 g/ha) is “good (a good herbicidal activity is given at values of at least 70)”.
For the compound `Nc1nc(Nc2c(F)c(F)c(F)c(F)c2F)nc(C2CCC(C(F)(F)F)CC2)n1` (centres unmarked) [Example 165], the herbicidal activity result in assay [6] (1000 g/ha), in assay [2] (1000 g/ha) and in assay [4] (1000 g/ha) was “very good (a very good herbicidal activity is given at values of at least 85)” each time.
`CC(C)(C)c1nc(N)nc(Nc2c(F)ccc(F)c2F)n1` [Example 80]: the herbicidal activity result in assay [5] (125 g/ha), in assay [7] (125 g/ha) and in assay [6] (125 g/ha) was “very good (a very good herbicidal activity is given at values of at least 85)” throughout.
Turning to `N#Cc1cccc(F)c1Nc1nc(N)nc(C(F)(F)F)n1` [Example 151], the herbicidal activity result in assay [1] (500 g/ha) was “good (a good herbicidal activity is given at values of at least 70)”.
For the compound `Nc1nc(CC2CC2)nc(Nc2c(F)cc(F)cc2F)n1` [Example 141], the figures for the herbicidal activity result in assay [6] (1000 g/ha), in assay [2] (1000 g/ha) and in assay [4] (1000 g/ha) were “good (a good herbicidal activity is given at values of at least 70)”, “very good (a very good herbicidal activity is given at values of at least 85)” and “very good (a very good herbicidal activity is given at values of at least 85)”, respectively.
Take `CC(C)(C)C1CCC(c2nc(N)nc(Nc3c(F)c(F)c(F)c(F)c3F)n2)CC1` (centres unmarked) [Example 177]: the herbicidal activity result in assay [2] (500 g/ha) is “good (a good herbicidal activity is given at values of at least 70)”; in assay [4] (500 g/ha) it was “very good (a very good herbicidal activity is given at values of at least 85)”.
